Results published in ChEMBL document CHEMBL2074324, “Multidrug resistance P-glycoprotein hampers the access of cortisol but not of corticosterone to mouse and human brain” (Endocrinology, 2001).

Biological target: ATP-dependent translocase ABCB1 (Mus musculus, UniProt P21447)
Experiment: TP_TRANSPORTER: increase in brain concentration in mdr1a(-/-) mouse
Type: functional, organism-based
Settings: in vivo

Sequence of ATP-dependent translocase ABCB1 (P21447 whole entry): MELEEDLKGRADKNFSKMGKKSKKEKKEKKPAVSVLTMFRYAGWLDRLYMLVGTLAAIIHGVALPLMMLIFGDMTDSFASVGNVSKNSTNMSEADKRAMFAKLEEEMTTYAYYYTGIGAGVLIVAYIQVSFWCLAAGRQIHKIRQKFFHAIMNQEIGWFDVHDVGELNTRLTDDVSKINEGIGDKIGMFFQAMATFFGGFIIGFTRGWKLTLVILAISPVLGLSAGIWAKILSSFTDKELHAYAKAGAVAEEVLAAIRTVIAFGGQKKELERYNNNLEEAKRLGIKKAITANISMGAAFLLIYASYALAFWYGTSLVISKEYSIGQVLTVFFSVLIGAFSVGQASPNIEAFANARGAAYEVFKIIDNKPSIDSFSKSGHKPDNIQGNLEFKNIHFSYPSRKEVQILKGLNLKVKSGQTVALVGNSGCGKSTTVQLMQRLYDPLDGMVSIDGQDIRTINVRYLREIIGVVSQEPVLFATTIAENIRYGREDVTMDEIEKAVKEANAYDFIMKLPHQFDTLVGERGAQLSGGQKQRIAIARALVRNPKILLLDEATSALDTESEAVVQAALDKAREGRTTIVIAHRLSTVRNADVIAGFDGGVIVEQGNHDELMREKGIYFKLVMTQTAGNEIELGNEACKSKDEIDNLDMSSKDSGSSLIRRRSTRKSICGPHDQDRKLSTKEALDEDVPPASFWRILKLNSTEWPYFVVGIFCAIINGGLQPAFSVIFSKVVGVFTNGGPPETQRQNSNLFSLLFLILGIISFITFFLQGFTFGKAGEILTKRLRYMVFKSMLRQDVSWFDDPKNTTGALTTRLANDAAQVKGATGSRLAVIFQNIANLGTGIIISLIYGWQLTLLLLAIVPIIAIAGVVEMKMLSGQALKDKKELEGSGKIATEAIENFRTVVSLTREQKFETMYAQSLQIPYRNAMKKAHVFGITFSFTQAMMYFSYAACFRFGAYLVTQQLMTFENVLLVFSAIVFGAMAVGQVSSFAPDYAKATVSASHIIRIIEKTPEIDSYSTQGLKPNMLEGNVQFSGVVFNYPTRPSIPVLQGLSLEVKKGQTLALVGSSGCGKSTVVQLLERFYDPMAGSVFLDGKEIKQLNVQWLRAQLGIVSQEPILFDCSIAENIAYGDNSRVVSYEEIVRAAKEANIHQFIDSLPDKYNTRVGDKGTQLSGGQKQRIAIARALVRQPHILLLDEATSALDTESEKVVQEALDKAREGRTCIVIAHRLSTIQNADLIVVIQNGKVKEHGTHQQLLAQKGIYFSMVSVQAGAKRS

For `C[C@]12CCC(=O)C=C1CC[C@@H]1[C@@H]2[C@@H](O)C[C@@]2(C)[C@H]1CC[C@]2(O)C(=O)CO` [HYDROCORTISONE], the Activity was “substrate [+]”.
